Results on 1 compound are retold here after ChEMBL document CHEMBL4000174, “Synthesis and antitumor activity of novel substituted uracil-1'(N)-acetic acid ester derivatives of 20(S)-camptothecins” (Eur J Med Chem, 2017).

Broadly, the pIC50 is the IC50 on a negative log10 scale, so that one unit is a factor of ten. A high value points to a low IC50. As usually defined, the T/C is the result in the treated group divided by that in the control group, in per cent.

One series relates to A2780. As to the kind of experiment: Antiproliferative activity against human A2780 cells after 96 hrs by MTT assay. In kind it is functional, cell-based. The following applies: A2780, 96 h. Background: Tetrazolium dyes change colour on reduction, which living cells bring about.
Series [1] deals with A549. As to the kind of experiment: Cell cycle arrest in human A549 cells assessed as accumulation at S phase at 25 nM after 24 hrs by propidium iodide staining based flow cytometry (reference value: 32.80%). It counts as functional. In general terms: In flow cytometry, cells or beads pass a laser one at a time.
In series [2] the test system is A549. In words: Cell cycle arrest in human A549 cells assessed as accumulation at G0/G1 phase at 75 nM after 24 hrs by propidium iodide staining based flow cytometry (reference value: 58.84%). It counts as functional.
Series [3] concerns A549. As to the kind of experiment: Cell cycle arrest in human A549 cells assessed as accumulation at G2/M phase at 8 nM after 24 hrs by propidium iodide staining based flow cytometry (reference value: 8.36%). It counts as functional.
Series [4] has as its system Mus musculus. As to the kind of experiment: Toxicity in BALB/c nude mouse xenografted with human Bel7402 cells assessed as body weight at 5 mg/kg, ip administered once in a week for two weeks starting from 6 days post tumor transplantation measured every 3 days for 21 days (reference value: 14.5 g). In kind it is organism-based. To be noted: in vivo, 504 h.
The test system of series [5] is Bel-7402. In words: Antitumor activity against human Bel7402 cells xenografted in BALB/c nude mouse assessed as tumor growth inhibition at 5 mg/kg, ip administered once in a week for two weeks starting from 6 days post tumor transplantation measured 27 to 30 days post tumor transplantation relative to control. To be noted: Bel-7402, ip, read-out: TGI. It counts as functional. A general note: Xenograft models place foreign cells or tissue in a host animal.

In series [6] the test system is A549. As to the kind of experiment: Cell cycle arrest in human A549 cells assessed as accumulation at S phase at 75 nM after 24 hrs by propidium iodide staining based flow cytometry (reference value: 32.80%). In kind it is functional.
In series [7] the test system is A549. In words: Cell cycle arrest in human A549 cells assessed as accumulation at S phase at 8 nM after 24 hrs by propidium iodide staining based flow cytometry (reference value: 32.80%). It counts as functional.
In another series the test system is Escherichia coli. As to the kind of experiment: Inhibition of Escherichia coli topoisomerase 1-mediated relaxation of supercoiled Pcmv-6 plasmid DNA at 1 to 50 uM after 30 mins by ethidium bromide staining based agarose gel electrophoretic analysis.
For series [8], the system named is Mus musculus. In words: Antitumor activity in BALB/c nude mouse xenografted with human Bel7402 cells assessed as tumor volume at 5 mg/kg, ip administered once in a week for two weeks starting from 6 days post tumor transplantation measured every 3 days for 21 days (reference value: […]). The following applies: in vivo, 504 h.
Series [9] has as its system A549. As to the kind of experiment: Antiproliferative activity against human A549 cells after 96 hrs by MTT assay. To be noted: A549, 96 h. It counts as functional, cell-based.
The next series has as its system BGC-823. As to the kind of experiment: Antiproliferative activity against human BGC823 cells after 96 hrs by MTT assay. In kind it is functional, cell-based. The following applies: BGC-823, 96 h.
Series [10] has as its system A549. As to the kind of experiment: Cell cycle arrest in human A549 cells assessed as accumulation at G2/M phase at 25 nM after 24 hrs by propidium iodide staining based flow cytometry (reference value: 8.36%). It counts as functional.
The test system of series [11] is Bel-7402. As to the kind of experiment: Antitumor activity against human Bel7402 cells xenografted in BALB/c nude mouse assessed as tumor volume at 5 mg/kg, ip administered once in a week for two weeks starting from 6 days post tumor transplantation measured 27 to 30 days post tumor transplantation relative to control. In kind it is functional.
Series [12] relates to A549. In words: Cell cycle arrest in human A549 cells assessed as accumulation at G2/M phase at 75 nM after 24 hrs by propidium iodide staining based flow cytometry (reference value: 8.36%). In kind it is functional.
Series [13] deals with Bel-7402. In words: Antiproliferative activity against human Bel7402 cells after 96 hrs by MTT assay. In kind it is functional, cell-based. To be noted: Bel-7402, 96 h.
A further series has as its system HCT-8. In words: Antiproliferative activity against human HCT8 cells after 96 hrs by MTT assay. In kind it is functional, cell-based. To be noted: HCT-8, 96 h.
Series [14] deals with A549. As to the kind of experiment: Cell cycle arrest in human A549 cells assessed as accumulation at G0/G1 phase at 25 nM after 24 hrs by propidium iodide staining based flow cytometry (reference value: 58.84%). It counts as functional.
Series [15] deals with A549. In words: Cell cycle arrest in human A549 cells assessed as accumulation at G0/G1 phase at 8 nM after 24 hrs by propidium iodide staining based flow cytometry (reference value: 58.84%). It counts as functional.

pIC50: −log10 of the molar value. Activity calls are given as the source filed them. The calls are words filed in the database; no cut-off is given here.

As to `CC[C@@]1(O)C(=O)OCc2c1cc1n(c2=O)Cc2cc3c(CN(C)C)c(O)ccc3nc2-1` [TOPOTECAN], the negative logarithm of the IC50 (pIC50) in the series on A2780 is 7.11; with A549 [9], 8.15; in the series on BGC-823, 7.11; in the series on Bel-7402 [13], 7.00; in the series with HCT-8, 7.66. In addition, the Activity in the series on A549 [1] is given as 31.44%; in the series on A549 [2] it was 43.81%; in the series with A549 [3], 11.71%; with Mus musculus [4] it was “Non-Toxic”; with A549 [6], 23.36%; in the series on A549 [7], 35.07%. In addition, the Activity was 12.83% in the series with A549 [10], 32.83% in the series on A549 [12], 55.73% in the series on A549 [14] and 53.22% in the series on A549 [15]. Also, in the series with Bel-7402 [5], the inhibition in vivo at 5 mg/kg was found to be 45.5%. Also, the inhibition entry in the series on Escherichia coli was “Active”. In addition, the tumor volume with Mus musculus [8] is 302 mm³. The T/C with Bel-7402 [11] stood at 58.8%.
